According to patent US20110110924A1, “Resistin as a Marker and Therapeutic Target for Cardiovascular Disease” (priority 2004, published 2011):
Peptide text beside a SMILES is read from it. * marks the point of attachment. Cbz = O=C(OCc1ccccc1)*

Experiments:
[1] = test system: resistin mRNA in primary human macrophages; test: Resistin mRNA expression in primary human macrophages (real time PCR); type: cell-based; settings: for effect on induction of resistin by LPS: pretreated 2 h, then LPS (1 ng/ml) 24 h
Protocol: (§1) Peripheral blood mononuclear cells were isolated from whole blood of healthy donors following apheresis and elutriation. […] Cells were plated in 24 well plates at a density of 10^6 cells per well, allowed to adhere for 4 hours, then washed with Dulbecco's Modified Eagles Medium (DMEM) and further cultured in 10% FBS in DMEM supplemented with 5 ng/ml GM-CSF (Sigma) to promote macrophage differentiation. All experiments were performed after overnight equilibration with macrophage serum free medium (Gibco/Invitrogen) supplemented with 5 ng/ml GM-CSF. […] Adenovirus expressing activated IKK in pAD-easy™ vector with GFP and control vector were a generous gift from Steven Shoelson.
RNA was isolated using RNeasy® Mini Kit (Qiagen), then subjected to DNAse digestion followed by reverse transcription (Invitrogen). mRNA transcripts were quantified by the dual-labeled fluorogenic probe method for real time PCR, using a Prism® 7900 thermal cycler and sequence detector (Perkin Elmer/ABI). Real time PCR was performed by using Taqman® Universal Polymerase Master Mix (Applied Biosystems). The primers and probes used in the real-time PCR were the following: […]
The cycle number at which the transcripts of the gene of interest was detectable (CT) was normalized to the cycle number of 36B4 detection, referred to as δ CT. The fold change of the gene of interest expression relative to the vehicle treated group was expressed as 2^− δδ^CT, in which δδ CT equals the δCT of the compound treated group minus δCT of the chosen control group, which was normalized to 1.

[2] = test system: resistin protein secretion by human macrophages; test: Resistin protein secretion by primary human macrophages (ELISA); type: cell-based
Protocol: as §1
Resistin concentrations, in cell media and human plasma, were assessed with a commercially available ELISA (Linco) and normalized to cell protein.

[3] = test system: TNFα mRNA in primary human macrophages; test: TNFα mRNA expression in primary human macrophages (real time PCR); type: cell-based; settings: LPS 1 μg/ml
Protocol: (§2) Peripheral blood mononuclear cells were isolated from whole blood of healthy donors following apheresis and elutriation. Greater than 90% of these monocytes expressed CD14 and HLA-DR. Cells were plated in 24 well plates at a density of 10^6 cells per well, allowed to adhere for 4 hours, then washed with Dulbecco's Modified Eagles Medium (DMEM) and further cultured in 10% FBS in DMEM supplemented with 5 ng/ml GM-CSF (Sigma) to promote macrophage differentiation. All experiments were performed after overnight equilibration with macrophage serum free medium (Gibco/Invitrogen) supplemented with 5 ng/ml GM-CSF. Cells were treated as indicated with LPS (Sigma), aspirin (Sigma), SN50 and control peptide (Biomol), MG132, PD98059, SB20358 (Calbiochem), and TNFα (R&D Systems). […]
RNA was isolated using RNeasy® Mini Kit (Qiagen), then subjected to DNAse digestion followed by reverse transcription (Invitrogen). mRNA transcripts were quantified by the dual-labeled fluorogenic probe method for real time PCR, using a Prism® 7900 thermal cycler and sequence detector (Perkin Elmer/ABI). […]
Primer and probe for TNFα was obtained from ABI. […] The fold change of the gene of interest expression relative to the vehicle treated group was expressed as 2^− δδ^CT, in which δδ CT equals the δCT of the compound treated group minus δCT of the chosen control group, which was normalized to 1.

[4] = test system: TNFα secretion by human macrophages; test: TNFα secretion into medium by primary human macrophages; type: cell-based; settings: LPS 1 μg/ml, time course
Protocol: Peripheral blood mononuclear cells were isolated from whole blood of healthy donors following apheresis and elutriation. Greater than 90% of these monocytes expressed CD14 and HLA-DR. Cells were plated in 24 well plates at a density of 10^6 cells per well, allowed to adhere for 4 hours, then washed with Dulbecco's Modified Eagles Medium (DMEM) and further cultured in 10% FBS in DMEM supplemented with 5 ng/ml GM-CSF (Sigma) to promote macrophage differentiation. All experiments were performed after overnight equilibration with macrophage serum free medium (Gibco/Invitrogen) supplemented with 5 ng/ml GM-CSF. Cells were treated as indicated with LPS (Sigma), aspirin (Sigma), SN50 and control peptide (Biomol), MG132, PD98059, SB20358 (Calbiochem), and TNFα (R&D Systems). Neutralizing antibodies to TNFα, IL-6, and anti-IL-6α, as well as control IgG were obtained from R&D Systems. Adenovirus expressing activated IKK in pAD-easy™ vector with GFP and control vector were a generous gift from Steven Shoelson.

[5] = test system: sTNFR2 secretion by human macrophages; test: sTNFR2 secretion into medium by primary human macrophages; type: cell-based; settings: LPS 1 μg/ml, time course
Protocol: as §2, with “GM-CSF.” for “GM-CSF. Cells were treated as indicated with LPS (Sigma), aspirin (Sigma), SN50 and control peptide (Biomol), MG132, PD98059, SB20358 (Calbiochem), and TNFα (R&D Systems).”
Resistin concentrations, in cell media and human plasma, were assessed with a commercially available ELISA (Linco) and normalized to cell protein. […] Direct comparison of standard curves generated by the Linco kit with another commercially available resistin ELISA (Biovendor) yielded high correlation (rho=0.99, p<0.001), except that the Biovendor results were approximately 30% lower than those determined with the Linco assay. […] Resistin levels in 40 plasma samples were measured using both Linco and Biovendor ELISA kits, with moderate correlation (rho=0.66). Levels of soluble TNFα Receptor-2 were measured using a commercially available immunoassay (R&D Systems). […]

plasma resistin = test: Human endotoxemia study, plasma resistin (ELISA); type: in vivo; settings: for increase of plasma resistin levels: healthy volunteers
Protocol: In another experiment, short term variation in plasma levels was examined by repeated sampling in young healthy control subjects of an additional clinical research study (Reilly et al, 2004c, and Lehrke, 2004, both cited above). Baseline variability in plasma resistin was assessed over a 24 hour period, in healthy young volunteers (n=6; three male and three females; age 24-34; BMI 24.3±1.07) without any past medical history and on no medications. These subjects were recruited to a 60-hour inpatient, General Clinical Research Center (GCRC) protocol designed to assess the metabolic responses to an inflammatory stimulus. Plasma resistin levels were determined in serial blood samples, collected at eight time points over 24 hours prior to the intravenous administration of human-research-grade endotoxin (3 ng/kg) as described in more detail in Reilly et al, 2004c, cited above.
Resistin concentrations, in cell media and human plasma, were assessed with a commercially available ELISA (Linco) and normalized to cell protein. Average correlation coefficient for standards using 4 parameter fit was 0.99. Intra-assay and inter-assay coefficients of variance were 4.7% and 9.1%, respectively. Direct comparison of standard curves generated by the Linco kit with another commercially available resistin ELISA (Biovendor) yielded high correlation (rho=0.99, p<0.001), except that the Biovendor results were approximately 30% lower than those determined with the Linco assay. This appeared to be related to the standards used for calibration. Discrepant absolute values among different assays, including the Biovendor assay, were recently described (Pfutzner 2003 cited above). Resistin levels in 40 plasma samples were measured using both Linco and Biovendor ELISA kits, with moderate correlation (rho=0.66). Levels of soluble TNFα Receptor-2 were measured using a commercially available immunoassay (R&D Systems). Intra-assay and inter assay coefficients of variance were 5.1% and 9.8%, respectively.
Healthy volunteers (n=6, 3 male, 3 female) aged 18-45 with BMI between 20 and 30 and on no medications were studied. The University of Pennsylvania Institutional Review Board approved the study protocol and all subjects gave written informed consent. Following screening and exclusion of subjects with any clinical or laboratory abnormalities, subjects were admitted to the General Clinical Research Center at the University of Pennsylvania for a 60 hour stay. Serial blood samples were collected for 24 hours prior to and 24 hours following the intravenous administration of human research grade endotoxin [obtained from NIH Clinical Center, reference endotoxin (CCRE) (lots 1 and 2; NIHCC PDS #67801)] at a dose of 3 ng/kg given at 6 AM. Plasma and whole blood RNA (PAX tube isolators, Qiagen) samples were isolated from blood, and stored under appropriate conditions for subsequent assays.

[6] = test system: mouse resistin in mouse peritoneal macrophages; test: Resistin expression in activated mouse peritoneal macrophages; type: cell-based; settings: macrophages harvested after thioglycolate treatment; data not shown
[7] = LPS 24 h treatment, increasing concentration
[8] = human macrophages in cell culture

COc1cccc(-c2cc(=O)c3ccccc3o2)c1N [PD98059]
effect on induction of resistin by LPS ([1]; 50 μM): partially blocked

C[S+]([O-])c1ccc(-c2nc(-c3ccc(F)cc3)c(-c3ccncc3)[nH]2)cc1 (stereo not drawn) [SB20358]
effect on induction of resistin by LPS ([1]; 2.5 μM): partially blocked

IL-6: cytokine interleukin-6
effect on resistin ([1]; data not shown and Kaser et al, 2003): induces resistin modestly

CC(C)C[C@@H](C=O)NC(=O)[C@H](CC(C)C)NC(=O)[C@H](CC(C)C)NC(=O)OCc1ccccc1 [MG132] (Cbz-Leu-Leu-Leu-aldehyde)
effect on endotoxin-induced activation of resistin expression ([1]; MG132 treatment of macrophages, data not shown): abrogated

CC(=O)Oc1ccccc1C(=O)O [aspirin]
effect on endotoxin-induced resistin expression ([1]; pre-treated with aspirin 2 h, then LPS (1 μg/ml) and aspirin 24 h, dose-dependent): dramatically decreased

lipopolysaccharide [LPS]
time of peak resistin gene expression after LPS ([1]; LPS 1 μg/ml): 24 h
effect on resistin gene expression [1, 7]: dramatic, dose-responsive increase
time of induction of resistin mRNA after LPS exposure [1, 8]: 6 to 24 h
maximal secreted protein level: resistin ([2]; LPS 1 μg/ml, time course, normalized to cell protein): 21.9 ng/mL/mg
effect on resistin protein secretion into the medium [2, 7]: increase in resistin protein secretion
time of induction of resistin protein after LPS exposure [2, 8]: 6 to 24 h
time at which TNFα gene expression was detectable after LPS [3]: 2 h
time of peak TNFα gene expression after LPS exposure [3]: 6 h
maximal secreted protein level: TNFα [4]: 207.2 ng/mL/mg
maximal secreted protein level: sTNFR2 [5]: 39.3 ng/mL/mg
increase of resistin serum/plasma levels (plasma resistin; LPS in humans (FIG. 6A)): over 400%
putative maximum increase in resistin due to inflammation (plasma resistin; endotoxin induction, Examples 6-12): 18 to 19 ng/mL
increase of plasma resistin levels (plasma resistin; intravenous LPS 3 ng/kg, listed as endotoxemia): > 7 fold
increase of plasma resistin levels (plasma resistin; intravenous LPS 3 ng/kg, listed as endotoxin): 3-5 fold
time of peak resistin levels after LPS administration (plasma resistin; intravenous LPS 3 ng/kg, six normal volunteers): 8 to 16 h
mouse resistin expression after LPS [6]: did not express detectable levels
